According to US20250215029A1 (Recludix Pharma, Inc., priority 2022, published 2025):
pIC50: −log10 of the molar value.

What was measured:
[1] = target: T1, Recombinant STAT3 protein (STAT3 (G127-I722)) (Homo sapiens, UniProt P40763); experiment: STAT3 Fluorescence Polarization (FP) Assay; type: binding; details: STAT3 (G127-I722) 25 nM, probe 5-FAM-GpYLPQTV-NH2 2 nM, 45-minute incubation; read-out: STAT3 (FP assay IC50 class)
T1 construct: Recombinant STAT3 protein (STAT3 (G127-I722))
Procedure, shortened: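 Displacement of a 2 nM 5-FAM-labelled pY peptide (GpYLPQTV) from 25 nM recombinant STAT3 (G127-I722) was monitored by fluorescence polarization. Incubation lasted 45 min at room temperature in pH 7.4 HEPES buffer containing 1% DMSO.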

[2] = target: T2, Recombinant STAT6 protein (STAT6 (W123-T658)) (Homo sapiens, UniProt P42226); experiment: STAT6 Fluorescence Polarization (FP) Assay; type: binding; details: STAT6 (W123-T658) 250 nM, probe 5-FAM-Ap[…]-NH2 2 nM, 45-minute incubation; read-out: STAT6 (FP assay IC50 class)
T2 construct: Recombinant STAT6 protein (STAT6 (W123-T658))
T2 sequence (P42226 123-658): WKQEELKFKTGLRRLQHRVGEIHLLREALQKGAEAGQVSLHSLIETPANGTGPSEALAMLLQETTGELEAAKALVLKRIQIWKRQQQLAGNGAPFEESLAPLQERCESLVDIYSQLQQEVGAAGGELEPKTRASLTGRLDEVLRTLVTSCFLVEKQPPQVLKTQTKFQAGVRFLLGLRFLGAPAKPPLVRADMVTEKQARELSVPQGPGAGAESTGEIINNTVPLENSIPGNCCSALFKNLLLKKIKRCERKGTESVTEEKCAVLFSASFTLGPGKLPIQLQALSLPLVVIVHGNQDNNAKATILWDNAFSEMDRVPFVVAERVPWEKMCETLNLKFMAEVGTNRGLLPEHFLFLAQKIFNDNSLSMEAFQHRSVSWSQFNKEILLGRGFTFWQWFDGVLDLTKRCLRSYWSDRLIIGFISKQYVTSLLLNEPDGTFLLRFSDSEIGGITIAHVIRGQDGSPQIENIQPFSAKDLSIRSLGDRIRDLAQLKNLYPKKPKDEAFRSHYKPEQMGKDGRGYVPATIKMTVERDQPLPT
Procedure, shortened: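 Protein-probe mix (250 nM STAT6 W123-T658, 2 nM 5-FAM-pTyr peptide) in 10 mM HEPES pH 7.4, 50 mM NaCl, 1 mM EDTA, 0.05% Tween 20, 2 mM DTT; added to compound dilution series, 1% DMSO final; 45 min RT; FP read; IC50 via nonlinear regression.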

T1 sequence (P40763 127-722): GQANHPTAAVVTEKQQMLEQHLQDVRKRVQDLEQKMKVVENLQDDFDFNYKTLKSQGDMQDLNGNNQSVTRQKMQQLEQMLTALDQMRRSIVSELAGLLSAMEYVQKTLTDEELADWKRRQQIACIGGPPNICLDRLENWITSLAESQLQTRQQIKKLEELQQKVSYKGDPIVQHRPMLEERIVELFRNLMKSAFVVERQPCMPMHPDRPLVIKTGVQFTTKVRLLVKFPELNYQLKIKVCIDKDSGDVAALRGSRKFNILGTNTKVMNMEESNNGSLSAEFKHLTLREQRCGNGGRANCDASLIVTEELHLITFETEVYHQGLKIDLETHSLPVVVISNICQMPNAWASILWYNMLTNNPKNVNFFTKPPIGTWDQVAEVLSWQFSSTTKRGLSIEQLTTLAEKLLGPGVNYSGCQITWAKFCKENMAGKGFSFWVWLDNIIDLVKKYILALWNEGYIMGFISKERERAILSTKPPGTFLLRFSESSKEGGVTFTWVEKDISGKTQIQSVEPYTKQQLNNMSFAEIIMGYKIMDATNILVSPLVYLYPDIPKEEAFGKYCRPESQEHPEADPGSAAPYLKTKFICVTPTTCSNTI

O=C(N[C@H]1CCC[C@H]2CC[C@@H](C(=O)N3CC(c4cnccc4N4CCC4)C3)N2C1=O)c1cc2cc(CP(=O)(O)O)ccc2s1 [Compound 765, ((2-(((3S,6S,9aS)-3-(3-(4-(azetidin-1-yl)pyridin-3-yl)azetidine-1-carbonyl)-5-oxooctahydro-1H-pyrrolo[1,2-a]azepin-6-yl)carbamoyl)benzo [b]thiophen-5-yl)methyl) phosphonic acid]
pIC50 [1]: > 7.00 | pIC50 [2]: 4.52 to 5.52

COc1ccncc1C1CN(C(=O)[C@@H]2CC[C@@H]3C[C@H](C)C[C@H](NC(=O)c4cc5cc([C@H](F)P(=O)(O)O)ccc5s4)C(=O)N32)C1 [Compound 766, ((R)-fluoro(2-(((3S,6S,8R,9aR)-3-(3-(4-methoxypyridin-3-yl)azetidine-1-carbonyl)-8-methyl-5-oxooctahydro-1H-pyrrolo[1,2-a]azepin-6-yl)carbamoyl)benzo [b]thiophen-5-yl)methyl) phosphonic acid]
pIC50 [1]: > 7.00 | pIC50 [2]: 4.52 to 5.52

COC1(c2nccn2C)CN(C(=O)[C@@H]2CC[C@@H]3CCC4(CC4)C[C@H](NC(=O)c4cc5cc(C(F)(F)P(=O)(O)O)ccc5s4)C(=O)N32)C1 [Compound 768, (difluoro(2-(((3′S,6′S,10a′S)-3′-(3-methoxy-3-(1-methyl-1H-imidazol-2-yl)azetidine-1-carbonyl)-5′-oxooctahydro-5′H-spiro[cyclopropane-1,8′-pyrrolo[1,2-a]azocin]-6′-yl)carbamoyl)benzo [b]thiophen-5-yl)methyl) phosphonic acid]
pIC50 [1]: 6.00 to 7.00 | pIC50 [2]: 4.52 to 5.52

Cc1cc(C2CN(C(=O)[C@@H]3CC[C@@H]4CCC[C@H](NC(=O)c5cc6cc(C(F)P(=O)(O)O)ccc6s5)C(=O)N43)C2)ccn1 (stereo partly drawn) [Compound 769, (fluoro(2-(((3S,6S,9aS)-3-(3-(2-methylpyridin-4-yl)azetidine-1-carbonyl)-5-oxooctahydro-1H-pyrrolo[1,2-a]azepin-6-yl)carbamoyl)benzo [b]thiophen-5-yl)methyl) phosphonic acid]
pIC50 [1]: > 7.00 | pIC50 [2]: 4.52 to 5.52

CC(=O)N1CCOC2(C1)CN(C(=O)[C@@H]1CC[C@@H]3CCC[C@H](NC(=O)c4cc5cc(C(F)P(=O)(O)O)ccc5s4)C(=O)N31)C2 (stereo partly drawn) [Compound 770, ((2-(((3S,6S,9aS)-3-(8-acetyl-5-oxa-2,8-diazaspiro[3.5]nonane-2-carbonyl)-5-oxooctahydro-1H-pyrrolo[1,2-a]azepin-6-yl)carbamoyl)benzo [b]thiophen-5-yl)fluoromethyl) phosphonic acid]
pIC50 [1]: 5.00 to 6.00 | pIC50 [2]: 4.52 to 5.52

O=C(N[C@H]1CCCCC[C@H]2CC[C@@H](C(=O)N3CC(C(=O)N4CCOCC4)C3)N2C1=O)c1cc2cc(C(F)(F)P(=O)(O)O)ccc2s1 [Compound 773, (difluoro(2-(((3S,6S,11aS)-3-(3-(morpholine-4-carbonyl)azetidine-1-carbonyl)-5-oxodecahydro-1H-pyrrolo[1,2-a]azonin-6-yl)carbamoyl)benzo [b]thiophen-5-yl)methyl) phosphonic acid]
pIC50 [1]: 6.00 to 7.00 | pIC50 [2]: < 4.52

O=C(N[C@H]1CCCC[C@H]2CC[C@@H](C(=O)N3CC4(CC(=O)c5nccn54)C3)N2C1=O)c1cc2cc(C(F)(F)P(=O)(O)O)ccc2s1 [Compound 774, (difluoro(2-(((3S,6S,10aS)-5-oxo-3-(7′-oxo-6′,7′-dihydrospiro[azetidine-3,5′-pyrrolo[1,2-a]imidazole]-1-carbonyl)decahydropyrrolo[1,2-a]azocin-6-yl)carbamoyl)benzo [b]thiophen-5-yl)methyl) phosphonic acid]
pIC50 [1]: > 7.00 | pIC50 [2]: 4.52 to 5.52

Cc1ncccc1C1CN(C(=O)[C@@H]2CC[C@@H]3CCC[C@H](NC(=O)c4cc5cc(C(F)(F)P(=O)(O)O)ccc5s4)C(=O)N32)C1 [Compound 775, (difluoro(2-(((3S,6S,9aS)-3-(3-(2-methylpyridin-3-yl)azetidine-1-carbonyl)-5-oxooctahydro-1H-pyrrolo[1,2-a]azepin-6-yl)carbamoyl)benzo [b]thiophen-5-yl)methyl) phosphonic acid]
pIC50 [1]: > 7.00 | pIC50 [2]: 5.52 to 6.52

N#CC1(c2ccccn2)CN(C(=O)[C@@H]2CC[C@@H]3CCC[C@H](NC(=O)c4cc5cc(C(F)(F)P(=O)(O)O)ccc5s4)C(=O)N32)C1 [Compound 776, ((2-(((3S,6S,9aS)-3-(3-cyano-3-(pyridin-2-yl)azetidine-1-carbonyl)-5-oxooctahydro-1H-pyrrolo[1,2-a]azepin-6-yl)carbamoyl)benzo [b]thiophen-5-yl)difluoromethyl) phosphonic acid]
pIC50 [1]: > 7.00 | pIC50 [2]: 5.52 to 6.52

COCC1(c2ccccc2)CN(C(=O)[C@@H]2CC[C@@H]3CCC[C@H](NC(=O)c4cc5cc(C(F)(F)P(=O)(O)O)ccc5s4)C(=O)N32)C1 [Compound 777, (difluoro(2-(((3S,6S,9aS)-3-(3-(methoxymethyl)-3-phenylazetidine-1-carbonyl)-5-oxooctahydro-1H-pyrrolo[1,2-a]azepin-6-yl)carbamoyl)benzo [b]thiophen-5-yl)methyl) phosphonic acid]
pIC50 [1]: > 7.00 | pIC50 [2]: 5.52 to 6.52

Cc1ccccc1C1CN(C(=O)[C@@H]2CC[C@@H]3CCC[C@H](NC(=O)c4cc5cc(C(F)(F)P(=O)(O)O)ccc5s4)C(=O)N32)C1 [Compound 778, (difluoro(2-(((3S,6S,9aS)-5-oxo-3-(3-(o-tolyl)azetidine-1-carbonyl)octahydro-1H-pyrrolo[1,2-a]azepin-6-yl)carbamoyl)benzo [b]thiophen-5-yl)methyl) phosphonic acid]
pIC50 [1]: > 7.00 | pIC50 [2]: 5.52 to 6.52

Cn1cnnc1C1CN(C(=O)[C@@H]2CC[C@@H]3CCC[C@H](NC(=O)c4cc5cc(C(F)(F)P(=O)(O)O)ccc5s4)C(=O)N32)C1 [Compound 779, (difluoro(2-(((3S,6S,9aS)-3-(3-(4-methyl-4H-1,2,4-triazol-3-yl)azetidine-1-carbonyl)-5-oxooctahydro-1H-pyrrolo[1,2-a]azepin-6-yl)carbamoyl)benzo [b]thiophen-5-yl)methyl) phosphonic acid]
pIC50 [1]: > 7.00 | pIC50 [2]: 4.52 to 5.52

N#CC1CN(C(=O)[C@@H]2CC[C@@H]3CCC[C@H](NC(=O)c4cc5cc(C(F)(F)P(=O)(O)O)ccc5s4)C(=O)N32)C1 [Compound 780, ((2-(((3S,6S,9aS)-3-(3-cyanoazetidine-1-carbonyl)-5-oxooctahydro-1H-pyrrolo[1,2-a]azepin-6-yl)carbamoyl)benzo [b]thiophen-5-yl)difluoromethyl) phosphonic acid]
pIC50 [1]: 6.00 to 7.00 | pIC50 [2]: 5.52 to 6.52

Cc1ccncc1C1CN(C(=O)[C@@H]2CC[C@@H]3CCC[C@H](NC(=O)c4cc5cc(C(F)(F)P(=O)(O)O)ccc5s4)C(=O)N32)C1 [Compound 783, (difluoro(2-(((3S,6S,9aS)-3-(3-(4-methylpyridin-3-yl)azetidine-1-carbonyl)-5-oxooctahydro-1H-pyrrolo[1,2-a]azepin-6-yl)carbamoyl)benzo [b]thiophen-5-yl)methyl) phosphonic acid]
pIC50 [1]: < 5.00 | pIC50 [2]: < 4.52

CC(C)C1(c2ccccc2)CN(C(=O)[C@@H]2CC[C@@H]3CCC[C@H](NC(=O)c4cc5cc(C(F)(F)P(=O)(O)O)ccc5s4)C(=O)N32)C1 [Compound 784, (difluoro(2-(((3S,6S,9aS)-3-(3-isopropyl-3-phenylazetidine-1-carbonyl)-5-oxooctahydro-1H-pyrrolo[1,2-a]azepin-6-yl)carbamoyl)benzo [b]thiophen-5-yl)methyl) phosphonic acid]
pIC50 [1]: 6.00 to 7.00 | pIC50 [2]: 4.52 to 5.52

O=C(N[C@H]1CCC[C@H]2CC[C@@H](C(=O)N3CC(C4COC4)C3)N2C1=O)c1cc2cc(C(F)(F)P(=O)(O)O)ccc2s1 [Compound 785, (difluoro(2-(((3S,6S,9aS)-3-(3-(oxetan-3-yl)azetidine-1-carbonyl)-5-oxooctahydro-1H-pyrrolo[1,2-a]azepin-6-yl)carbamoyl)benzo [b]thiophen-5-yl)methyl) phosphonic acid]
pIC50 [1]: 6.00 to 7.00 | pIC50 [2]: 4.52 to 5.52

O=C(N[C@H]1CCCC[C@H]2CC[C@@H](C(=O)N3CCCC34CC4)N2C1=O)c1cc2cc(C(F)(F)P(=O)(O)O)ccc2s1 [Compound 786, (difluoro(2-(((3S,6S,10aS)-5-oxo-3-(4-azaspiro[2.4]heptane-4-carbonyl)decahydropyrrolo[1,2-a]azocin-6-yl)carbamoyl)benzo [b]thiophen-5-yl)methyl) phosphonic acid]
pIC50 [1]: 5.00 to 6.00 | pIC50 [2]: 5.52 to 6.52
